Laboratory results taken from ChEMBL document CHEMBL3885861, “Open TG-GATES”.

Species: Rattus norvegicus
Assay: Open TG-GATES - Regimen: Single
Format: toxicity, organism-based, Sprague-Dawley
Set-up: regimen Single, gender Male, age 6 weeks
Conditions: in vivo, po, 0 mg/kg, route gavage, dose level Control; for APTT / Bas / Eos / Fbg / Ht / Lym / MCHC / MCV / Mono / PT / Plat / RBC / Ret / WBC / Hb: tissue Blood; for KIDNEY_L / KIDNEY_R / KIDNEY_TOTAL: tissue Kidney; for LIVER: tissue Liver; for ALP / ALT / AST / BUN / CRE / DBIL / GLC / IP / K / LDH / RALB / TBIL / TC / TP / gamma-GTP / PL: tissue Plasma

Question: With CN(C)CCCN1c2ccccc2CCc2ccccc21 [IMIPRAMINE] as the compound, how does the TERMINAL_BW (3 h) read?
Answer: 203.9 g

Question: And the APTT (3 h)?
Answer: 16.9 s

Question: What about the Bas (3 h) of the same compound?
Answer: 0.2%

Question: And the Eos (3 h)?
Answer: 1%

Question: And the Fbg (3 h)?
Answer: 270.6 mg/dL

Question: What about the Ht (3 h) of the same compound?
Answer: 40.9%

Question: And the Lym (3 h)?
Answer: 79.2%

Question: What about the MCHC (3 h) of the same compound?
Answer: 32.3%

Question: What about the MCV (3 h) of the same compound?
Answer: 64.7 fL

Question: What about the Mono (3 h) of the same compound?
Answer: 2.8%

Question: What about the PT (3 h) of the same compound?
Answer: 15.9 s

Question: What about the Plat (3 h) of the same compound?
Answer: 112.7 x10_4/uL

Question: And the RBC (3 h)?
Answer: 632.8 x10_4/ul

Question: What about the Ret (3 h) of the same compound?
Answer: 8.2%

Question: And the WBC (3 h)?
Answer: 81.7 x10_2/uL

Question: What about the KIDNEY_L (3 h) of the same compound?
Answer: 0.9 g

Question: And the KIDNEY_R (3 h)?
Answer: 0.9 g

Question: What about the KIDNEY_TOTAL (3 h) of the same compound?
Answer: 1.7 g

Question: And the LIVER (3 h)?
Answer: 9.1 g

Question: What about the ALP (3 h) of the same compound?
Answer: 1571.6 IU/L

Question: What about the ALT (3 h) of the same compound?
Answer: 52 IU/L

Question: And the AST (3 h)?
Answer: 84.6 IU/L

Question: And the BUN (3 h)?
Answer: 9 mg/dL

Question: What about the CRE (3 h) of the same compound?
Answer: 0.2 mg/dL

Question: And the DBIL (3 h)?
Answer: 0.01 mg/dL

Question: What about the GLC (3 h) of the same compound?
Answer: 183.2 mg/dL

Question: And the IP (3 h)?
Answer: 8.9 mg/dL

Question: And the K (3 h)?
Answer: 4 meq/L

Question: And the LDH (3 h)?
Answer: 111 IU/L

Question: And the RALB (3 h)?
Answer: 2.6 g/dL

Question: What about the TBIL (3 h) of the same compound?
Answer: 0.07 mg/dL

Question: What about the TC (3 h) of the same compound?
Answer: 84 mg/dL

Question: And the TP (3 h)?
Answer: 5.4 g/dL

Question: And the gamma-GTP (3 h)?
Answer: 1.6 IU/L

Question: And the TERMINAL_BW (6 h)?
Answer: 201.5 g

Question: And the APTT (6 h)?
Answer: 15.5 s

Question: And the Bas (6 h)?
Answer: 0.4%

Question: And the Eos (6 h)?
Answer: 0.8%

Question: What about the Fbg (6 h) of the same compound?
Answer: 326 mg/dL

Question: What about the Hb (6 h) of the same compound?
Answer: 12.8 g/dL

Question: What about the Ht (6 h) of the same compound?
Answer: 39.2%

Question: What about the Lym (6 h) of the same compound?
Answer: 73.2%

Question: And the MCHC (6 h)?
Answer: 32.5%

Question: And the MCV (6 h)?
Answer: 63.9 fL

Question: What about the Mono (6 h) of the same compound?
Answer: 3%

Question: And the PT (6 h)?
Answer: 15.8 s

Question: And the Plat (6 h)?
Answer: 112.2 x10_4/uL

Question: And the RBC (6 h)?
Answer: 614.8 x10_4/ul

Question: What about the Ret (6 h) of the same compound?
Answer: 7.6%

Question: And the WBC (6 h)?
Answer: 95 x10_2/uL

Question: What about the KIDNEY_L (6 h) of the same compound?
Answer: 0.9 g

Question: What about the KIDNEY_R (6 h) of the same compound?
Answer: 0.9 g

Question: And the KIDNEY_TOTAL (6 h)?
Answer: 1.9 g

Question: What about the LIVER (6 h) of the same compound?
Answer: 9.1 g

Question: What about the ALP (6 h) of the same compound?
Answer: 1465 IU/L

Question: What about the ALT (6 h) of the same compound?
Answer: 52.8 IU/L

Question: And the AST (6 h)?
Answer: 99.2 IU/L

Question: What about the BUN (6 h) of the same compound?
Answer: 8.4 mg/dL

Question: And the CRE (6 h)?
Answer: 0.2 mg/dL

Question: And the GLC (6 h)?
Answer: 176.2 mg/dL

Question: And the IP (6 h)?
Answer: 9.4 mg/dL

Question: And the K (6 h)?
Answer: 4 meq/L

Question: What about the LDH (6 h) of the same compound?
Answer: 80.4 IU/L

Question: And the PL (6 h)?
Answer: 133.6 mg/dL

Question: And the RALB (6 h)?
Answer: 2.5 g/dL

Question: What about the TBIL (6 h) of the same compound?
Answer: 0.07 mg/dL

Question: And the TC (6 h)?
Answer: 72.6 mg/dL

Question: And the TP (6 h)?
Answer: 5.3 g/dL

Question: What about the gamma-GTP (6 h) of the same compound?
Answer: 1.2 IU/L

Question: What about the TERMINAL_BW (9 h) of the same compound?
Answer: 200.5 g

Question: And the APTT (9 h)?
Answer: 16 s

Question: And the Bas (9 h)?
Answer: 0.4%

Question: And the Eos (9 h)?
Answer: 1%

Question: And the Fbg (9 h)?
Answer: 291.6 mg/dL

Question: What about the Hb (9 h) of the same compound?
Answer: 12.9 g/dL

Question: And the Ht (9 h)?
Answer: 40.1%

Question: And the Lym (9 h)?
Answer: 80.8%

Question: And the MCHC (9 h)?
Answer: 32.3%

Question: What about the MCV (9 h) of the same compound?
Answer: 65.1 fL

Question: What about the Mono (9 h) of the same compound?
Answer: 2.4%

Question: What about the PT (9 h) of the same compound?
Answer: 15.3 s

Question: What about the Plat (9 h) of the same compound?
Answer: 110.6 x10_4/uL

Question: And the RBC (9 h)?
Answer: 615.4 x10_4/ul

Question: And the Ret (9 h)?
Answer: 8.2%

Question: And the WBC (9 h)?
Answer: 76.7 x10_2/uL

Question: And the KIDNEY_L (9 h)?
Answer: 0.9 g

Question: And the KIDNEY_R (9 h)?
Answer: 0.9 g

Question: And the KIDNEY_TOTAL (9 h)?
Answer: 1.8 g

Question: What about the LIVER (9 h) of the same compound?
Answer: 8.2 g

Question: What about the ALP (9 h) of the same compound?
Answer: 1396.6 IU/L

Question: And the ALT (9 h)?
Answer: 37.4 IU/L

Question: What about the AST (9 h) of the same compound?
Answer: 69.6 IU/L

Question: What about the BUN (9 h) of the same compound?
Answer: 8 mg/dL

Question: What about the CRE (9 h) of the same compound?
Answer: 0.1 mg/dL

Question: What about the DBIL (9 h) of the same compound?
Answer: 0.008 mg/dL

Question: What about the GLC (9 h) of the same compound?
Answer: 178 mg/dL

Question: And the IP (9 h)?
Answer: 9.9 mg/dL

Question: And the K (9 h)?
Answer: 4.1 meq/L

Question: What about the LDH (9 h) of the same compound?
Answer: 59 IU/L

Question: What about the PL (9 h) of the same compound?
Answer: 136 mg/dL

Question: And the RALB (9 h)?
Answer: 2.5 g/dL

Question: And the TBIL (9 h)?
Answer: 0.068 mg/dL

Question: What about the TC (9 h) of the same compound?
Answer: 74.4 mg/dL

Question: And the TP (9 h)?
Answer: 5.2 g/dL

Question: And the gamma-GTP (9 h)?
Answer: 1 IU/L

Question: What about the TERMINAL_BW (24 h) of the same compound?
Answer: 217.3 g

Question: And the APTT (24 h)?
Answer: 17.1 s

Question: What about the Bas (24 h) of the same compound?
Answer: 0.2%

Question: And the Eos (24 h)?
Answer: 1.2%

Question: What about the Fbg (24 h) of the same compound?
Answer: 265.2 mg/dL

Question: What about the Ht (24 h) of the same compound?
Answer: 41.7%

Question: What about the Lym (24 h) of the same compound?
Answer: 76.2%

Question: And the MCHC (24 h)?
Answer: 32.1%

Question: What about the MCV (24 h) of the same compound?
Answer: 66.7 fL

Question: And the Mono (24 h)?
Answer: 2.8%

Question: And the PT (24 h)?
Answer: 16.1 s

Question: And the Plat (24 h)?
Answer: 114.2 x10_4/uL

Question: And the RBC (24 h)?
Answer: 626.2 x10_4/ul

Question: And the Ret (24 h)?
Answer: 7.8%

Question: And the WBC (24 h)?
Answer: 93.4 x10_2/uL

Question: What about the KIDNEY_L (24 h) of the same compound?
Answer: 0.9 g

Question: And the KIDNEY_R (24 h)?
Answer: 0.9 g

Question: And the KIDNEY_TOTAL (24 h)?
Answer: 1.8 g

Question: And the LIVER (24 h)?
Answer: 10.2 g

Question: And the ALP (24 h)?
Answer: 1689.2 IU/L

Question: What about the ALT (24 h) of the same compound?
Answer: 59 IU/L

Question: What about the AST (24 h) of the same compound?
Answer: 83.4 IU/L

Question: What about the CRE (24 h) of the same compound?
Answer: 0.2 mg/dL

Question: What about the DBIL (24 h) of the same compound?
Answer: 0.02 mg/dL

Question: What about the GLC (24 h) of the same compound?
Answer: 185.4 mg/dL

Question: What about the IP (24 h) of the same compound?
Answer: 8.1 mg/dL

Question: And the K (24 h)?
Answer: 3.9 meq/L

Question: And the LDH (24 h)?
Answer: 75.2 IU/L

Question: What about the RALB (24 h) of the same compound?
Answer: 2.6 g/dL

Question: What about the TBIL (24 h) of the same compound?
Answer: 0.06 mg/dL
